Common to all, as to assay: biochemical
One assay addresses T1, MMP-2 (Homo sapiens, UniProt P08253).
T1 construct: made in house; provided by Dr. Gregory Goldberg, Washington University
T1 sequence (P08253 110-660): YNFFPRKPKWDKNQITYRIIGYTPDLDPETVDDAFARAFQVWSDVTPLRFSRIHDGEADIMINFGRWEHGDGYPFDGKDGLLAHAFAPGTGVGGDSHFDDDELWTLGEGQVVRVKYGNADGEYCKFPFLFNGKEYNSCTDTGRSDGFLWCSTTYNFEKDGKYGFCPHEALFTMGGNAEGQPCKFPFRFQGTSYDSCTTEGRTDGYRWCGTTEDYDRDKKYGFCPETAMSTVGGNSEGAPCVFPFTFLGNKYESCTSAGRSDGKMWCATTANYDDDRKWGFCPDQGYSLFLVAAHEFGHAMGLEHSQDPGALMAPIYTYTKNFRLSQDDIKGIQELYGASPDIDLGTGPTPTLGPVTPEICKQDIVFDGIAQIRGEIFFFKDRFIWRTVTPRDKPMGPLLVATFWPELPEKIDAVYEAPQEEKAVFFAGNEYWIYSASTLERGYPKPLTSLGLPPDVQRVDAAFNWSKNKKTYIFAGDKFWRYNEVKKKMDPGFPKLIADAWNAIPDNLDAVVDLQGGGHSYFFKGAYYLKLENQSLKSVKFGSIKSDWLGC
In short, it runs like this: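 Assay buffer 100 mM Tris-HCl, 100 mM NaCl, 10 mM CaCl2, pH 7.5. Activated MMP + inhibitor, 5 min RT; then methoxycoumarin peptide substrate, 4 μM final. Readout fluorescence; IC50 calculated.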

The target of the next assay is T2, MMP-1 (Homo sapiens, UniProt P03956).
T2 construct: made in house; host or cells: transfected HT-1080 cells (provided by Dr. Harold Welgus, Washington University)
T2 sequence (P03956 100-469): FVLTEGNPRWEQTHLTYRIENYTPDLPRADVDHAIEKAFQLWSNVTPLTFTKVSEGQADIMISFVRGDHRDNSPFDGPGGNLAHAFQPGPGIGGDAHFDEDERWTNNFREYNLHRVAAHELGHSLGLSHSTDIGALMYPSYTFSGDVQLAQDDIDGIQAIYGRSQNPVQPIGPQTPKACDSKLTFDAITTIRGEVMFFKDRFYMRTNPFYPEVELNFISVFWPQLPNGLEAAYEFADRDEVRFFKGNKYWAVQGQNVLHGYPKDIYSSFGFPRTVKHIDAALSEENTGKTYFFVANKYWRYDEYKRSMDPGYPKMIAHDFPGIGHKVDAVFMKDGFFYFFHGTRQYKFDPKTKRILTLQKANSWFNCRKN
The note with it: read-out: MMP-1 IC50. The procedure, abridged: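 Substrate MCA-PLGL-Dpa-AR-NH2 at 4 μM final; pH 7.5 Tris/NaCl/CaCl2 buffer with 0.05% polyethyleneglycol lauryl ether, 1% DMSO, room temperature. MMP-1 was expressed in transfected HT-1080 cells and APMA-activated.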

In the next assay the target is T3, MMP-13 (Homo sapiens, UniProt P45452).
T3 construct: made in house; host or cells: baculovirus / insect cells
As to conditions: read-out: MMP-13 IC50. The procedure, abridged: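 APMA- or trypsin-activated enzymes were preincubated with inhibitor for 5 min at room temperature, then the fluorogenic substrate MCA-Pro-Leu-Gly-Leu-Dpa-Ala-Arg-NH2 was added to a final 4 μM.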

Where [1] appears, read: recombinant human MMP-2, MCA peptide substrate 4 μM, pH 7.5, room temperature, read-out: MMP-2 IC50.
The mark [2] stands for this setting: recombinant human MMP-1, MCA peptide substrate 4 μM, pH 7.5, room temperature.
The mark [3] stands for this setting: recombinant human MMP-13, MCA peptide substrate 4 μM, pH 7.5, room temperature.

The IC50 is the concentration at which inhibition is half-maximal.

Structures are written as SMILES. Counter-ions that a name gives are not always drawn. Like-named read-outs stand apart in the source and are kept apart here.

With `O=C(NO)C1(S(=O)(=O)c2ccc(N3CCC(c4cccc5c4CCCC5)CC3)cc2)CCOCC1` [Example 473], the IC50 is 3300 nM on MMP-2 (setting [1]), over 10 µM on MMP-1 (setting [2]) and 160 nM on MMP-13 (setting [3]).
On to `CC1CC(C)CN(C(=O)C2CCN(c3ccc(S(=O)(=O)C4(C(=O)NO)CCSCC4)cc3)CC2)C1` (stereo not drawn) [Example 162], for which the 50% inhibitory concentration (IC50) at MMP-2 (read-out: MMP-2 IC50) is 7000 nM; at MMP-1, over 10 µM; at MMP-13, 27.8 nM.
As for `O=C(NO)C1(S(=O)(=O)c2ccc(N3CCC(Oc4ccc5c(c4)OCO5)CC3)cc2)CCOCC1` [Example 644], the figures for the IC50 at MMP-2 (setting [1]), at MMP-1 (setting [2]) and at MMP-13 (setting [3]) were 3.3 nM, 8.8 µM and 1.6 nM, respectively.
In the case of `CC(=O)N1CCN(c2ccc(S(=O)(=O)C3(C(=O)NO)CCOCC3)cc2)CC1` [Example 539], the half-maximal inhibitory concentration (IC50) on MMP-2 (setting [1]) is 350 nM; on MMP-1 (setting [2]), over 10 µM; at MMP-13 (setting [3]), 270 nM.
With `CCOc1ccccc1C1CCN(c2ccc(S(=O)(=O)C3(C(=O)NO)CCOCC3)cc2)CC1` [Example 544], the values for the IC50 against MMP-2 (MMP-2 IC50 (nM)), on MMP-1 (setting [2]) and at MMP-13 (setting [3]) were 3100 nM, over 10 µM and 35 nM, respectively.
As to `CCOC(=O)CN1CCN(CC(=O)N2CCC(C(=O)NO)(S(=O)(=O)c3ccc(N4CCC(C(=O)N5CC(C)CC(C)C5)CC4)cc3)CC2)CC1` (stereo not drawn) [Example 305], the values for the IC50 on MMP-2 (setting [1]), on MMP-1 (setting [2]) and at MMP-13 (setting [3]) were over 10000 nM, over 10 µM and 28.6 nM, respectively.
As to `O=C(NO)C1(S(=O)(=O)c2ccc(Oc3ccc(C(F)(F)F)cc3)cc2)CCN(S(=O)(=O)c2ccc(C(F)(F)F)cc2)CC1` [Example 143], the figures for the half-inhibitory concentration (IC50) on MMP-2 (setting [1]), at MMP-1 (setting [2]) and at MMP-13 (setting [3]) were 14.5 nM, over 10 µM and 22 nM, respectively.
For the compound `O=C(NO)C1(S(=O)(=O)c2ccc(N3CCC(Cc4ccccc4)CC3)cc2)CCOCC1` [Example 720], the concentration for half-maximal inhibition (IC50) at MMP-2 (setting [1]) is 36.9 nM; on MMP-1 (setting [2]), over 10 µM; on MMP-13 (setting [3]), 4.5 nM.
As to `O=C(NO)C1(S(=O)(=O)c2ccc(N3CCC(OCc4ccc(F)cc4)CC3)cc2)CCN(C2CC2)CC1` [Example 397], the IC50 is 70 nM on MMP-2 (setting [1]), over 10 µM at MMP-1 (setting [2]) and 4.4 nM at MMP-13 (setting [3]).
Taken in the same sequence, the figures for `O=C(NO)C1(S(=O)(=O)c2ccc(N3CCC(SCc4ccccc4)CC3)cc2)CCOCC1` [Example 707] were 9 nM, over 10 µM and 2.3 nM.
Taken in the same sequence, the figures for `O=C(NO)C1(S(=O)(=O)c2ccc(N3CCC(CCOCc4ccc(F)cc4)CC3)cc2)CCOCC1` [Example 500] were 22 nM, over 10 µM and 3 nM.
As to `COc1ccc(C(=O)C2CCN(c3ccc(S(=O)(=O)C4(C(=O)NO)CCOCC4)cc3)CC2)cc1` [Example 80], the half-inhibitory concentration (IC50) on MMP-2 (setting [1]) is 562 nM; at MMP-1 (setting [2]), over 10 µM; at MMP-13 (setting [3]), 4.1 nM.
The like results for `O=C(Nc1ccc(F)cc1)OC1CCN(c2ccc(S(=O)(=O)C3(C(=O)NO)CCOCC3)cc2)CC1` [Example 191] were, in that order, 25.1 nM, over 10 µM and 3.5 nM.
The like results for `O=C(Nc1ccc(F)cc1F)N1CCC(C(=O)NO)(S(=O)(=O)c2ccc(Oc3ccc(OC(F)(F)F)cc3)cc2)CC1` [Example 363] were, in that order, 0.2 nM, 8.8 µM and 0.4 nM.
Taken in the same sequence, the figures for `O=C(NO)C1(S(=O)(=O)c2ccc(N3CCC(OCc4ccc(COCC(F)(F)C(F)(F)C(F)(F)C(F)F)cc4)CC3)cc2)CCOCC1` [Example 611] were 1800 nM, over 10 µM and 139 nM.
Take `O=C(c1ccc(F)cc1)C1CCN(c2ccc(S(=O)(=O)C3(C(=O)NO)CCOCC3)cc2)CC1` [Example 654]: the IC50 on MMP-2 (setting [1]) is 35 nM; at MMP-1 (setting [2]), over 10 µM; at MMP-13 (setting [3]), 3.2 nM.
As for `O=C(NO)C1(S(=O)(=O)c2ccc(N3CCN(c4cc(C(F)(F)F)ccn4)CC3)cc2)CCOCC1` [Example 534], the IC50 on MMP-2 (setting [1]) was 480 nM; on MMP-1 (setting [2]), over 10 µM; at MMP-13 (setting [3]), 30 nM.
Taken in the same sequence, the figures for `O=C(CCCCNCCO)N1CCC(C(=O)NO)(S(=O)(=O)c2ccc(Oc3ccc(C(F)(F)F)cc3)cc2)CC1` [Example 337] were 0.2 nM, over 10 µM and 2.7 nM.
Taken in the same sequence, the figures for `CC(C)CN(C)C(=O)C1CCN(c2ccc(S(=O)(=O)C3(C(=O)NO)CCOCC3)cc2)CC1` [Example 58] were 4000 nM, over 10 µM and 22 nM.
On to `COCCN(CCCCC(=O)N1CCC(C(=O)NO)(S(=O)(=O)c2ccc(Oc3ccc(C(F)(F)F)cc3)cc2)CC1)CCOC` [Example 342], for which the half-inhibitory concentration (IC50) is 0.3 nM on MMP-2 (setting [1]), over 10 µM on MMP-1 (setting [2]) and 4 nM at MMP-13 (setting [3]).
Take `COCCN1CCC(C(=O)NO)(S(=O)(=O)c2ccc(N3CCC(C(=O)NC4Cc5ccccc5C4)CC3)cc2)CC1` [Example 242, 4-[[4-[4-[[(2,3-Dihydro-1H-inden-2-yl)amino]carbonyl]-1-piperidinyl]phenyl]sulfonyl]-N-hydroxy-1-(2-methoxyethyl)-4-piperidinecarboxamide, Monohydrochloride]: the half-inhibitory concentration (IC50) on MMP-2 (setting [1]) is 1500 nM; on MMP-1 (setting [2]) it was over 10 µM; on MMP-13 (setting [3]) it was 42.5 nM.
Taken in the same sequence, the figures for `O=C(c1ccc2c(c1)OCO2)C1CCN(c2ccc(S(=O)(=O)C3(C(=O)NO)CCOCC3)cc2)CC1` [Example 796] were 130 nM, over 10 µM and 5.7 nM.
With `CC1CCN(c2ccc(S(=O)(=O)C3(C(=O)NO)CCOCC3)cc2)CC1` [Example 495], the concentration for half-maximal inhibition (IC50) on MMP-2 (setting [1]) is 21.1 nM; on MMP-1 (setting [2]) it was over 10 µM; on MMP-13 (setting [3]), 14.5 nM.
For the compound `O=C(NO)C1(S(=O)(=O)c2ccc([C@H]3CC[C@H](c4ccccc4)CC3)cc2)CCOCC1` [Example 782], the IC50 on MMP-2 (setting [1]) is 100 nM; on MMP-1 (setting [2]), over 10 µM; on MMP-13 (setting [3]), 21.1 nM.
Taken in the same sequence, the figures for `COc1ccc(OC2CCN(c3ccc(S(=O)(=O)C4(C(=O)NO)CCOCC4)cc3)CC2)cc1OC` [Example 616] were 3.7 nM, over 10 µM and 4 nM.
`CCNCC(=O)N1CCC(C(=O)NO)(S(=O)(=O)c2ccc(N3CCC(C(=O)N4CC(C)CC(C)C4)CC3)cc2)CC1` (stereo not drawn) [Example 277]: the 50% inhibitory concentration (IC50) on MMP-2 (setting [1]) was over 10000 nM; on MMP-1 (setting [2]) it was over 10 µM; on MMP-13 (setting [3]) it was 70 nM.
The like results for `O=C(NO)C1(S(=O)(=O)c2ccc(N3CCC(Oc4cccc5ccccc45)CC3)cc2)CCOCC1` [Example 614] were, in that order, 25.4 nM, over 10 µM and 22 nM.
For `O=C(c1ccc2c(c1)OCCO2)C1CCN(c2ccc(S(=O)(=O)C3(C(=O)NO)CCOCC3)cc2)CC1` [Example 797], the 50% inhibitory concentration (IC50) is 175 nM on MMP-2 (setting [1]), over 10 µM at MMP-1 and 4 nM at MMP-13 (setting [3]).
`C=CCOC1CCN(c2ccc(S(=O)(=O)C3(C(=O)NO)CCOCC3)cc2)CC1` [Example 635]: the IC50 at MMP-2 (setting [1]) was 260 nM; at MMP-1 (setting [2]), over 10 µM; on MMP-13 (setting [3]) it was 13.9 nM.
Turning to `CCCC(=O)C1CCN(c2ccc(S(=O)(=O)C3(C(=O)NO)CCOCC3)cc2)CC1` [Example 799], the values for the IC50 on MMP-2 (setting [1]), at MMP-1 (setting [2]) and at MMP-13 (setting [3]) were 43.5 nM, over 10 µM and 10.6 nM, respectively.
As to `O=C(c1ccccc1)N1CCC(C(=O)NO)(S(=O)(=O)c2ccc(Oc3ccc(C(F)(F)F)cc3)cc2)CC1` [Example 92], the 50% inhibitory concentration (IC50) at MMP-2 (setting [1]) was 0.1 nM; on MMP-1 (setting [2]), over 10 µM; on MMP-13 (setting [3]) it was 0.8 nM.
Taken in the same sequence, the figures for `CC(C)CCOCc1ccc(COC2CCN(c3ccc(S(=O)(=O)C4(C(=O)NO)CCOCC4)cc3)CC2)cc1` [Example 600] were 600 nM, over 10 µM and 9 nM.

Source of the values: US6750228B1, “Aromatic sulfone hydroxamic acid metalloprotease inhibitor” (priority 1997, dated 2004).
